Experimental data published in US8124764B2, “Fused heterocyclyc inhibitor compounds” (Gilead Sciences, Inc., priority 2008, dated 2012).

What was measured:
HDAC 1 = HDAC 1 (Homo sapiens, UniProt Q13547); assay: HDAC 1 inhibition assay with about 3 hours enzyme/compound preincubation (fluorophore/quencher peptide substrate); format: biochemical; conditions: 3-hour preincubation of enzyme with compound; read-out: HDAC 1 inhibitory activity (IC50 [μM]) (3-hour preincubation)
CDK2 = CDK2 (Homo sapiens, UniProt P24941); assay: CDK2 inhibition; format: biochemical

Chain of HDAC 1 (Q13547 whole entry, species assumed): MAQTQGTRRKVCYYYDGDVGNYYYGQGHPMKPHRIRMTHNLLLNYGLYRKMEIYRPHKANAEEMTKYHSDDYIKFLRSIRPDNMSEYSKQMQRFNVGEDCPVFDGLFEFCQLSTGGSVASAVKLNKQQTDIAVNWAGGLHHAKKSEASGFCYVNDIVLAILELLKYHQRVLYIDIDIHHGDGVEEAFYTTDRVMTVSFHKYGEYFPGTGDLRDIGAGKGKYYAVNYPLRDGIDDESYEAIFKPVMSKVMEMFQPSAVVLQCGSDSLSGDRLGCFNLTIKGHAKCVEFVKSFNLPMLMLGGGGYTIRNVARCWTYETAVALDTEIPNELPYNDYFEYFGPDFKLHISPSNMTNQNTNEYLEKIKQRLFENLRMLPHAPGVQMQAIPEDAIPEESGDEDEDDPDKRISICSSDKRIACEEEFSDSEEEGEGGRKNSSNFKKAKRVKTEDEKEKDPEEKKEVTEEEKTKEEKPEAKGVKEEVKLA

| IC50 (HDAC 1) [µM] | IC50 (CDK2) [µM] | Molecule |
| --- | --- | --- |
| 0.169 | 0.68 | Cc1nc2ccccn2c1-c1ccnc(Nc2cnc(C(=O)NO)cn2)n1 [Example 67, N-hydroxy-5-(4-(2-methylimidazo[1,2-a]pyridin-3-yl)pyrimidin-2-ylamino)pyrazine-2-carboxamide] |
| 0.0206 | > 40 | Cc1nc2ccccn2c1-c1ccnc(Nc2cnc(C(=O)Nc3ccccc3N)cn2)n1 [Example 68, N-(2-aminophenyl)-5-(4-(2-methylimidazo[1,2-a]pyridin-3-yl)pyrimidin-2-ylamino)pyrazine-2-carboxamide] |
| 0.141 | 0.15 | Cc1nc2ccccn2c1-c1ccnc(Nc2ccc(C(=O)NO)cn2)c1 [Example 69, N-hydroxy-6-(4-(2-methylimidazo[1,2-a]pyridin-3-yl)pyridin-2-ylamino)nicotinamide] |
| 0.073 | 0.87 | Cc1nc2ccccn2c1-c1ccnc(Nc2ccc(C(=O)Nc3ccccc3N)cn2)c1 [Example 70, N-(2-aminophenyl)-6-(4-(2-methylimidazo[1,2-a]pyridin-3-yl)pyridin-2-ylamino)nicotinamide] |
| 0.185 | 0.026 | Cc1nc2ccccn2c1-c1ccnc(Nc2csc(C(=O)NO)c2)n1 [Example 71, N-hydroxy-4-(4-(2-methylimidazo[1,2-a]pyridin-3-yl)pyrimidin-2-ylamino)thiophene-2-carboxamide] |
| 0.185 | 1.68 | Cc1nc2ccccn2c1-c1ccnc(Nc2ncc(C(=O)NO)s2)c1 [Example 73, N-hydroxy-2-(4-(2-methylimidazo[1,2-a]pyridin-3-yl)pyridin-2-ylamino)thiazole-5-carboxamide] |
| 0.104 | 6.47 | Cc1nc2ccccn2c1-c1ccnc(Nc2ncc(C(=O)NO)cn2)c1 [Example 74, N-hydroxy-2-(4-(2-methylimidazo[1,2-a]pyridin-3-yl)pyridin-2-ylamino)pyrimidine-5-carboxamide] |

| Molecule | IC50 (HDAC 1) [µM] | IC50 (CDK2) [µM] |
| --- | --- | --- |
| N-hydroxy-2-(4-(2-methylimidazo[1,2-a]pyridin-3-yl)pyrimidin-2-ylamino)oxazole-5-carboxamide [Example 72] | 0.4 | > 40 |
